Experimental data from ChEMBL document CHEMBL1143223, “Synthesis and in vitro activity of 1-(2,3-dichlorophenyl)-N-(pyridin-3-ylmethyl)-1H-1,2,4-triazol-5-amine and 4-(2,3-dichlorophenyl)-N-(pyridin-3-ylmethyl)-4H-1,2,4-triazol-3-amine P2X7 antagonists” (Bioorg Med Chem Lett, 2008).

How the values were obtained:
P2X purinoceptor 7 [1] = biological target: T1, P2X purinoceptor 7 (Homo sapiens, UniProt Q99572); assay: Antagonist activity at human recombinant P2X7 receptor assessed as inhibition of BzATP-induced calcium flux by FLIPR assay; type: functional
T1 sequence (Q99572 whole entry): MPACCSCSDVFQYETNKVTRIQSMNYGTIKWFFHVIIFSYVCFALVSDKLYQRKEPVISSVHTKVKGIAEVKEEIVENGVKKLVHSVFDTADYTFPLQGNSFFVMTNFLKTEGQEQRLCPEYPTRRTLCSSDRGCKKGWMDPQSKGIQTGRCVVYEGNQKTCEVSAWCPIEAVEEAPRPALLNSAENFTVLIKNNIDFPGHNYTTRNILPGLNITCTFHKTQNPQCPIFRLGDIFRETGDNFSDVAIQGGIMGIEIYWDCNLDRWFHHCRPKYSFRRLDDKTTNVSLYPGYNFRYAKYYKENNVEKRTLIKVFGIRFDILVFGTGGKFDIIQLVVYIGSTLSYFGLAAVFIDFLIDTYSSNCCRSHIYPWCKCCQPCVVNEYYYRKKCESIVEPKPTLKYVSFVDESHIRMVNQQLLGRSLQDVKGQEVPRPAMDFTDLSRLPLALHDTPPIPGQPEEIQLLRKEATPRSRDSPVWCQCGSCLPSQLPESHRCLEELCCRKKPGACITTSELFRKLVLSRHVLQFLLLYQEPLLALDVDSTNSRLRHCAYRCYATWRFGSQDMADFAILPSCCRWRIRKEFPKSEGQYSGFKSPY

P2X purinoceptor 7 [2] = biological target: T2, P2X purinoceptor 7 (Rattus norvegicus, UniProt Q64663); assay: Antagonist activity at rat recombinant P2X7 receptor assessed as inhibition of BzATP-induced calcium flux by FLIPR assay; type: functional
T2 sequence (Q64663 whole entry): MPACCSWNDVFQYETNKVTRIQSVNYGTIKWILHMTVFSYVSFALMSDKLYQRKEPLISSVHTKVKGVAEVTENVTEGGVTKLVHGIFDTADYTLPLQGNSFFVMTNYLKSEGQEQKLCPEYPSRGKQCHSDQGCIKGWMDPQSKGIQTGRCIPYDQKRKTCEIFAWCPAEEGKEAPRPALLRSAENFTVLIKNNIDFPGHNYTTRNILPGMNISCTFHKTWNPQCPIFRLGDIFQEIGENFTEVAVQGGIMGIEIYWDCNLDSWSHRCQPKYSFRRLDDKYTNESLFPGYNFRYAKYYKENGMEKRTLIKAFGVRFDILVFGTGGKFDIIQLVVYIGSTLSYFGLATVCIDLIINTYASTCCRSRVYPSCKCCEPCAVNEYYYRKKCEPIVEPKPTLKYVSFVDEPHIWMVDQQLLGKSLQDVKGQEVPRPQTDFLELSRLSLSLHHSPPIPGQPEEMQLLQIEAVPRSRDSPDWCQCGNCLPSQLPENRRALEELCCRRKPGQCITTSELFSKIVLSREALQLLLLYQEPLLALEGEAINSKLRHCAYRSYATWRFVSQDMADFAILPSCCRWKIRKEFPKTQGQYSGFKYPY

SMILES | IC50 (P2X purinoceptor 7 [1]) | IC50 (P2X purinoceptor 7 [2])
Clc1cccc(-n2cnnc2NCc2cccnc2Oc2cccnc2)c1Cl | 0.0309 µM | 0.0355 µM
COc1ccccc1Nc1ncnn1-c1cccc(Cl)c1Cl | 0.102 µM | 2.04 µM
CCOc1ccccc1CNc1ncnn1-c1cccc(Cl)c1Cl | 0.0457 µM | 0.49 µM
Clc1cccc(-n2ncnc2NCc2cccnc2N2CCCC2)c1Cl | 0.0126 µM | 0.0282 µM
Clc1cccc(-n2ncnc2NCc2ccncc2)c1Cl | > 10 µM | > 10 µM
Cc1ncccc1CNc1nncn1-c1cccc(Cl)c1Cl | 0.0288 µM | 0.178 µM
Clc1cccc(-n2ncnc2NCc2cccnc2-c2ccsc2)c1Cl | 0.0151 µM | 0.138 µM
Clc1cccc(-n2ncnc2NCc2cccnc2Oc2cccnc2)c1Cl | 0.0138 µM | 0.129 µM
Clc1cccc(-n2ncnc2Nc2ccccc2N2CCOCC2)c1Cl | 3.39 µM | 4.9 µM
Clc1cccc(-n2ncnc2Nc2ccccc2)c1Cl | 0.363 µM | 3.89 µM
Clc1cccc(-n2ncnc2NCc2cccnc2)c1Cl | 0.117 µM | 1.32 µM
CC(C)N1CCCN(c2ncccc2CNc2nncn2-c2cccc(Cl)c2Cl)CC1 | 0.0676 µM | 
NC(=O)CN1CCCN(c2ncccc2CNc2nncn2-c2cccc(Cl)c2Cl)CC1 | 0.0324 µM | 
Cc1ccccc1Nc1ncnn1-c1cccc(Cl)c1Cl | 0.0178 µM | 0.24 µM
CCc1ccccc1Nc1ncnn1-c1cccc(Cl)c1Cl | 0.0457 µM | 0.288 µM
COc1cccc(CNc2ncnn2-c2cccc(Cl)c2Cl)c1OC | 0.0309 µM | 0.135 µM
Clc1cccc(-n2cnnc2NCc2cccnc2N2CCCC2)c1Cl | 0.0148 µM | 0.012 µM
Cc1cccc(CNc2ncnn2-c2cccc(Cl)c2Cl)c1 | 0.155 µM | 1.02 µM
Cc1ccc(CNc2ncnn2-c2cccc(Cl)c2Cl)cc1 | 0.479 µM | 7.08 µM

SMILES | IC50 (P2X purinoceptor 7 [1]) | IC50 (P2X purinoceptor 7 [2])
Clc1cccc(-n2ncnc2NCc2ccccc2)c1Cl | 0.0479 µM | 0.209 µM
Cc1cccc(CNc2ncnn2-c2cccc(Cl)c2Cl)c1C | 0.0676 µM | 0.631 µM
Clc1cccc(-c2nnnn2Cc2cccnc2)c1Cl | 0.123 µM | 0.309 µM
Clc1cccc(-n2ncnc2NCc2ccccc2Oc2cccnc2)c1Cl | 0.0468 µM | 0.158 µM
Clc1cccc(-n2ncnc2NCc2cccnc2N2CCC2)c1Cl | 0.00912 µM | 0.0257 µM
Clc1cccc(-n2cnnc2NCc2cccnc2-c2ccsc2)c1Cl | 0.011 µM | 0.0363 µM
Cc1ccccc1CNc1ncnn1-c1cccc(Cl)c1Cl | 0.0209 µM | 0.2 µM
Cc1nnc(NCc2cccnc2-c2ccsc2)n1-c1cccc(Cl)c1Cl | 0.0398 µM | 0.0457 µM
COc1ccccc1CNc1ncnn1-c1cccc(Cl)c1Cl | 0.0575 µM | 0.708 µM
CCOc1ccccc1Nc1ncnn1-c1cccc(Cl)c1Cl | 1.86 µM | 11 µM
CS(=O)(=O)c1ccccc1CNc1ncnn1-c1cccc(Cl)c1Cl | 0.02 µM | 0.0398 µM
CSc1ccccc1CNc1ncnn1-c1cccc(Cl)c1Cl | 0.049 µM | 0.288 µM
COc1cccc(CNc2ncnn2-c2cccc(Cl)c2Cl)c1 | 0.288 µM | 1.38 µM
Clc1cccc(-n2cnnc2NCc2cccnc2)c1Cl | 0.355 µM | 1.12 µM
FC(F)(F)Oc1ccccc1Nc1ncnn1-c1cccc(Cl)c1Cl | 0.617 µM | 5.5 µM
COc1ccc(CNc2ncnn2-c2cccc(Cl)c2Cl)cc1 | 1.62 µM | 10.5 µM
Clc1cccc(-n2ncnc2NCc2cccnc2N2CCOCC2)c1Cl | 0.0282 µM | 0.214 µM
Cc1ncccc1CNc1ncnn1-c1cccc(Cl)c1Cl | 0.0117 µM | 0.295 µM
